In publication PMC9098912, “Molecular basis for inhibiting human glucose transporters by exofacial inhibitors” (Nature Communications, 2022):
Several values for one entry are separate records, joined by “and”; a condition that tells them apart may be missing. Equal values may be shown once. Entries after “also recorded” stand apart in the source; their conditions may differ.

Legend:
[1] = target: T1, human GLUT3(N43T) (Homo sapiens, UniProt P11169, N43T); test: Proteoliposome-based counterflow assay, inhibition of D-[2-3H]-glucose transport; format: biochemical; conditions: 100 μM inhibitor; for Figure S1d: transport activity in presence of inhibitor (value1-3): three independent experiments, 100 µM
T1 construct: His10 (N); made in house; host or cells: Sf9 insect cells (baculovirus)
T1 sequence (P11169 1-496 N43T): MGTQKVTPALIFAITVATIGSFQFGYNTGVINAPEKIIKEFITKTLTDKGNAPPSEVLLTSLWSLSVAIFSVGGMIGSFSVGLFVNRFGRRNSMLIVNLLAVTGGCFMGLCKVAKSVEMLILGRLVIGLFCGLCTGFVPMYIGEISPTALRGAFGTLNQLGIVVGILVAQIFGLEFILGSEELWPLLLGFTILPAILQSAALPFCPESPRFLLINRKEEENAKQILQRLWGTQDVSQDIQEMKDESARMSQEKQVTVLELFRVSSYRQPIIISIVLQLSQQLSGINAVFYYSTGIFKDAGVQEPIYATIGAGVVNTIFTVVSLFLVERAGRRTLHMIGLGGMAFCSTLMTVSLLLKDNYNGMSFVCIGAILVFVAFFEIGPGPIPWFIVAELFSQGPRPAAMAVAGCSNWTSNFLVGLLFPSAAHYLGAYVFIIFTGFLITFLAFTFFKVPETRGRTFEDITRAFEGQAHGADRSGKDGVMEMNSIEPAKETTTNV
Procedure: (§1) All mutants were generated by standard PCR-based strategy.
(§2) All counterflow assays were performed at 25 °C. […] Liposome without protein was used as negative control.
(§3) All experiments were repeated at least three times.

[2] = target: T2, human glucose transporter GLUT1(N45T) (Homo sapiens, UniProt P11166, N45T); test: as above; format: biochemical; conditions: 100 μM inhibitor; for Figure S1c: transport activity in presence of inhibitor (value1-3) / Inhibition of glucose uptake: GLUT1; for Figure S1c: transport activity in presence of inhibitor (value1-3): 100 µM
T2 construct: made in house
T2 sequence (P11166 1-492 N45T): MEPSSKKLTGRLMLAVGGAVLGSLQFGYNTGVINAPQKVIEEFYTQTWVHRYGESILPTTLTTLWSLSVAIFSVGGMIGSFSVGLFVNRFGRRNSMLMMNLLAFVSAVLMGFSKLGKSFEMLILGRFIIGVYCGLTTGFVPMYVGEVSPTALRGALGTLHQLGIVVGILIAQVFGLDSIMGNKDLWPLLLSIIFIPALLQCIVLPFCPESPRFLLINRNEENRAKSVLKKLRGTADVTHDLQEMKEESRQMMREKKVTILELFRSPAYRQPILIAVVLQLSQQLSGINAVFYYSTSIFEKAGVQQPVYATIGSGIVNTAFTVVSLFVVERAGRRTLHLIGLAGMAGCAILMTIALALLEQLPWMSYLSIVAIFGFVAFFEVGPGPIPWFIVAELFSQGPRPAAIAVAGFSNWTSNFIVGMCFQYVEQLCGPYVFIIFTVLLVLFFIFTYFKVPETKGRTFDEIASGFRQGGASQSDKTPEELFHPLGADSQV
Procedure: as §1, §2, §3

[3] = target: E. coli (strain O157:H7) D-xylose:proton symporter XylE (Escherichia coli O157:H7, UniProt P0AGF5); conditions: for Figure S1b: transport activity in presence of inhibitor (value1-3): 100 µM
Procedure: The recombinant human glucose transporter GLUT1(N45T) and E. coli (strain O157:H7) D-xylose:proton symporter XylE were expressed and purified as described previously[17],[26]. […] In brief, the cDNA of human GLUT3 was cloned into a modified pFastBac vector (Invitrogen) fused with an N-terminal His10 tag. All mutants were generated by standard PCR-based strategy.
E. coli polar lipids (Avanti) were dissolved, dried, and resuspended to a final concentration of 20 mg/ml with the KPM 6.5 buffer (50 mM potassium phosphate, 2 mM MgSO4; pH 6.5) supplemented with 50 mM D-glucose or xylose (Sigma). After freeze-and-thaw with liquid nitrogen, the liposomes were extruded through 0.4 μm polycarbonate membranes (Millipore) and incubated with 1% n-octyl-β-d-glucoside (β-OG; Anatrace) at 4 °C for 30 min. Purified protein was incubated with liposomes at a ratio of ~1:100 (w/w) for 60 min. Then β-OG was removed by incubating with Bio-Beads SM2 (Bio-Rad) overnight. The proteoliposomes were subject to freeze-and-thaw again and extruded through 0.4 μm polycarbonate membranes. The homogenized proteoliposomes were ultracentrifuged at 100,000 g at 4 °C for 1 h and rinsed twice with the ice cold KPM 6.5 buffer. Finally, the proteoliposomes were resuspended in the KPM 6.5 buffer to a final concentration of 100 mg/ml (phospholipids).
All counterflow assays were performed at 25 °C. For each assay, an aliquot of 2 μl proteoliposomes was added into 98 μl KPM 6.5 buffer plus 1 μCi D-[2-^3H] glucose (specific radioactivity 23.4 Ci/mmol, PerkinElmer) or D-[^3H] xylose (20 Ci/mmol, American Radiolabeled Chemicals, Inc.). The final concentrations of the external D-[2-^3H] glucose and D-[^3H] xylose were 0.42 μM and 0.5 μM, respectively. Uptake of radio-labeled substrates was terminated at 30 s by rapidly filtering the solution through 0.22 μm GSTF filters (Millipore) and washed with 2.5 ml KPM 6.5 buffer. The filter was solubilized with 0.5 ml Optiphase HISAFE 3 (PerkinElmer) for 30 min for liquid scintillation counting with MicroBeta JET (PerkinElmer). Liposome without protein was used as negative control.
For inhibition assays, an aliquot of 2 μL proteoliposome pre-incubated with 100 μM indicated inhibitors for 0.5 h on ice was added to 98 μL KPM buffer containing 1 μCi D-[2-^3H]-glucose or D-[^3H] xylose with 100 μM inhibitors. To determine the IC50 of the inhibitor, a series of concentrations of the inhibitor was applied as indicated.
All experiments were repeated at least three times. Data for liposome-based counterflow assay were analyzed using GraphPad Prism 6.

[4] = target: T2, human glucose transporter GLUT1(N45T); conditions: 50 mM maltose, cited from earlier work
[5] = target: T1, human GLUT3(N43T); conditions: 50 mM maltose, cited from earlier work
[6] = target: T3, WT GLUT3 (Homo sapiens, UniProt P11169, N43T); test: Microscale thermophoresis (MST) binding assay; design: Figure 1e middle: MST binding curve, Mean / Figure 1e right: MST binding curve, Mean / Figure 2c: MST binding curve, Mean: unit not given here; conditions: GLUT3, log [CCB]
T3 construct: His10 (N); made in house; host or cells: Sf9 insect cells (baculovirus)
T3 sequence (P11169 1-496 N43T): T1 sequence (P11169 1-496 N43T)
Procedure: as §1
(§4) Inhibitors with serial dilutions were mixed with indicated protein. […] MST analyses were conducted on a Monolith NT. […] The MST data was analyzed by Monolith NT.115.

[7] = target: T4, GLUT3exo (GLUT3 S64W and I305W) (Homo sapiens, UniProt P11169, I305W/N43T/S64W); test: biochemical; format: binding; conditions: GLUT3 dTrp mutant, log [CCB]
T4 construct: His10 (N); made in house; host or cells: Sf9 insect cells (baculovirus)
Procedure: Following the same principle for the engineering of XylE-WW, we introduced two Trp substitutions, S64W and I305W, on the extracellular segments of TM2 and TM8 of GLUT3, respectively. This variant will be referred to as GLUT3exo hereafter (Fig. 1a). The two bulky substituents were expected to trap GLUT3 in an outward-facing conformation.
as §1, §4

T4 sequence (P11169 whole entry N43T/S64W/I305W): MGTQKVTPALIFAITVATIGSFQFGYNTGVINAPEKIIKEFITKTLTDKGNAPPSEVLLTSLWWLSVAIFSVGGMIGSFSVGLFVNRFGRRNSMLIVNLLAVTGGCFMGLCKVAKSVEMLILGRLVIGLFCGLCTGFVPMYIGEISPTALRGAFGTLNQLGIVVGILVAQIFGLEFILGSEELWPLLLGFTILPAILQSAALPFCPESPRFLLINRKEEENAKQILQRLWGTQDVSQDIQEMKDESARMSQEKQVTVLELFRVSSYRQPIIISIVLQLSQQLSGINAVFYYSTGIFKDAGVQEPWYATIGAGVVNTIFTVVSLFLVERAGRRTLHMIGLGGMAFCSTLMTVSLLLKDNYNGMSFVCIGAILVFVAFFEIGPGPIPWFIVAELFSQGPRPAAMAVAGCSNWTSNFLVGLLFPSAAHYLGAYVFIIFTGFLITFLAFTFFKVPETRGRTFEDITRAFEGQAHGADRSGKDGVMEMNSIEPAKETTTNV
Sequence of E. coli (strain O157:H7) D-xylose:proton symporter XylE (P0AGF5 whole entry, the tested form may be a part): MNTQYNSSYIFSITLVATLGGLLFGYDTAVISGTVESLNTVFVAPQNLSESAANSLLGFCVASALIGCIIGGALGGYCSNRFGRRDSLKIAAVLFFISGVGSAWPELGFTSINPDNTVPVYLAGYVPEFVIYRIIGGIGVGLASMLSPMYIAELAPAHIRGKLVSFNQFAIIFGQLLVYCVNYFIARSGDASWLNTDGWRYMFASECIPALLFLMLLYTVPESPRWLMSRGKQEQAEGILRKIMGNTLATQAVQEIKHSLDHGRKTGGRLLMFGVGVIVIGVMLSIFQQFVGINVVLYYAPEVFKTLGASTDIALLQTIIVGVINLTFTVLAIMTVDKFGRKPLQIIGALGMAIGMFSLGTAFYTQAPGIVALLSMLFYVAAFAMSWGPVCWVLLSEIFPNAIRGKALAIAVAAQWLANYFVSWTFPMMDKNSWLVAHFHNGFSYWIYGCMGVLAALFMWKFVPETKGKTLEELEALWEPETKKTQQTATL

SMILES: CCOC(=O)c1c(C)c(Cl)c(OC(=O)c2c(C)c(Cl)c(O)c(Cl)c2OC)c(Cl)c1OC [SA5]
- Figure S1d: transport activity in presence of inhibitor (value1-3) [1]: 105.451 and 87.0011 and 100.662
- Figure S1c: transport activity in presence of inhibitor (value1-3) ([2]; three independent experiments): 101.106 and 93.647 and 95.1991
- Figure S1b: transport activity in presence of inhibitor (value1-3) [3]: 86.3087 and 90.0117 and 94.9979

SMILES: COC1OC(CO)C(O)C(O)C1OC(=O)c1cc(Cl)c(OCc2nc3ccccc3n2C(C)C)c(Cl)c1 (stereo not shown) [SA2]
- Inhibition of glucose uptake [1]: almost completely abolished
- Figure S1d: transport activity in presence of inhibitor (value1-3) [1]: 15.2946 and 13.6199 and 13.8419
- Inhibition of glucose uptake [2]: almost completely abolished
- Figure S1c: transport activity in presence of inhibitor (value1-3) ([2]; three independent experiments): 23.4003 and 23.4095 and 22.1495
- Inhibition of xylose transport [3]: moderately inhibited
- Figure S1b: transport activity in presence of inhibitor (value1-3) [3]: 58.0461 and 66.7656 and 51.1774

SMILES: COc1ccccc1N1CCN(c2ncnc3c2cnn3-c2cccc(CN)c2)CC1 [SA6]
- Inhibition of glucose uptake [1]: almost completely abolished
- Figure S1d: transport activity in presence of inhibitor (value1-3) [1]: 8.1554 and 7.7188 and 4.7344
- Inhibition of glucose uptake [2]: almost completely abolished
- Figure S1c: transport activity in presence of inhibitor (value1-3) ([2]; three independent experiments): 5.6059 and 7.7469 and 6.8521
- Figure S1b: transport activity in presence of inhibitor (value1-3) [3]: 95.2845 and 101.756 and 111.538

SMILES: OC[C@H]1O[C@H](O[C@H]2[C@H](O)[C@@H](O)C(O)O[C@@H]2CO)[C@H](O)[C@@H](O)[C@@H]1O (mixture of isomers) [maltose]
- Inhibition of glucose transport ([4]; ref 18 (Deng et al., 2015)): could not be completely blocked; also recorded: cannot completely inhibit
- Preserved transport activity ([4]; ref Deng et al., 2015): one third
- Inhibition of glucose transport ([5]; ref 18 (Deng et al., 2015)): could not be completely blocked; also recorded: cannot completely inhibit
- Preserved transport activity ([5]; ref Deng et al., 2015): one quarter

SMILES: COc1c(Cl)c(OCc2ccccc2)c(Cl)c(C)c1C(=O)OC1C(OC)OC(CO)C(O)C1O (stereo not shown) [SA4]
- Inhibition of glucose uptake [1]: almost completely abolished
- Figure S1d: transport activity in presence of inhibitor (value1-3) [1]: 6.3677 and 8.1365 and 7.922
- Inhibition of glucose uptake [2]: almost completely abolished
- Figure S1c: transport activity in presence of inhibitor (value1-3) ([2]; three independent experiments): 12.2388 and 8.7146 and 10.3352
- Figure S1b: transport activity in presence of inhibitor (value1-3) [3]: 106.928 and 95.1823 and 98.9097

SMILES: C=C1[C@@H](C)[C@H]2[C@H](Cc3ccccc3)NC(=O)[C@]23OC(=O)/C=C/[C@H](O)CCC[C@@H](C)C/C=C/[C@H]3[C@@H]1O [CCB, cytochalasin B]
- Figure S1c: transport activity in presence of inhibitor (value1-3) ([2]; three independent experiments): 7.4821 and 5.9756
- activity at 100 µM ([2]; read-out: Figure S1c: transport activity in presence of inhibitor (value1-3), GLUT1, three independent experiments): 5.88%
- Figure 1e middle: MST binding curve, Mean ([6]; M -5.20412): 94.2771
- Figure 1e middle: MST binding curve, Mean ([6]; M -5.50515): 91.6933
- Figure 1e middle: MST binding curve, Mean ([6]; M -5.80618): 73.4039
- Figure 1e middle: MST binding curve, Mean ([6]; M -6.10721): 45.8611
- Figure 1e middle: MST binding curve, Mean ([6]; M -6.40824): 32.1651
- Figure 1e middle: MST binding curve, Mean ([6]; M -7.0103): 19.0619
- Figure 1e middle: MST binding curve, Mean ([6]; M -7.31133): 12.7467
- Figure 1e middle: MST binding curve, Mean ([6]; M -7.61236): 11.0147
- Figure 1e middle: MST binding curve, Mean ([6]; M -7.91339): 6.7796
- Figure 1e middle: MST binding curve, Mean ([6]; M -8.51545): 9.6216
- Figure 1e middle: MST binding curve, Mean ([6]; M -8.81648): 7.333
- Figure 1e middle: MST binding curve, Mean ([6]; M -9.11751): 0.514
- Figure 1e middle: MST binding curve, Mean ([7]; M -3.69897): 12.3879
- Figure 1e middle: MST binding curve, Mean ([7]; M -4): 6.9876
- Figure 1e middle: MST binding curve, Mean ([7]; M -4.30103): 10.2535
- Figure 1e middle: MST binding curve, Mean ([7]; M -4.60206): 7.6812
- Figure 1e middle: MST binding curve, Mean ([7]; M -4.90309): 5.043
- Figure 1e middle: MST binding curve, Mean ([7]; M -5.20412): 1.714
- Figure 1e middle: MST binding curve, Mean ([7]; M -5.50515): 6.889
- Figure 1e middle: MST binding curve, Mean ([7]; M -5.80618): 3.628
- Figure 1e middle: MST binding curve, Mean ([7]; M -6.10721): 6.7864
- Figure 1e middle: MST binding curve, Mean ([7]; M -6.40824): 7.2964
- Figure 1e middle: MST binding curve, Mean ([7]; M -6.70927): 7.035
- Figure 1e middle: MST binding curve, Mean ([7]; M -7.0103): 6.292
- Figure 1e middle: MST binding curve, Mean ([7]; M -7.31133): 16.166
- Figure 1e middle: MST binding curve, Mean ([7]; M -7.61236): 24.9543
- Figure 1e middle: MST binding curve, Mean ([7]; M -7.91339): 19.4149
- Figure 1e middle: MST binding curve, Mean ([7]; M -8.21442): 19.7489

SMILES: C#CCCC(=O)Nc1cccc(COc2c(Cl)cc(C(=O)OC3C(OC)OC(CO)C(O)C3O)cc2OC)c1 (stereo not shown) [SA3]
- Inhibition of glucose uptake [1]: mildly inhibited
- Figure S1d: transport activity in presence of inhibitor (value1-3) [1]: 34.7779 and 38.4924 and 41.7666
- Inhibition of glucose uptake [2]: mildly inhibited
- Figure S1c: transport activity in presence of inhibitor (value1-3) ([2]; three independent experiments): 52.3152 and 50.1788 and 49.4073
- Figure S1b: transport activity in presence of inhibitor (value1-3) [3]: 88.5699 and 92.3449 and 87.2521
